Measurements reported in patent US20110250135A1, “Piperazine Derivatives for Binding and Imaging Amyloid Plaques and Their Use” (Bayer Schering Pharma Aktiengesellschaft, priority 2008, published 2011).

Legend:
Aβ plaques = biological target: T1, Aβ plaques (Homo sapiens, UniProt P05067); assay: Autoradiographical analysis of binding to cryosections from cortex of AD patients and controls; conditions: F-18 labeled compound; Alzheimer's disease patients (AD) vs controls without Aβ plaques
T1 construct: controls without Aβ plaques; from tissue; host or cells: frontal lobe / cortex sections (frozen and paraffin) from AD patients, FTD patients and age-matched controls
Procedure, shortened: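 Frozen (18 μm) and deparaffinized paraffin (6 μm) frontal-lobe sections from Alzheimer's, frontotemporal dementia and age-matched control brains were incubated 1.5 h at room temperature with F-18 test compound at 10 Bq/μl in 25 mM Hepes pH 7.4, 0.1% BSA. Blocking used 1000-fold excess unlabeled compound; phosphoimager readout.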

[1] = Biodistribution: organ distribution of F-18 signal in mice; format: in vivo, male NMRI mice; conditions: for Organ distribution of F-18 signal, intestine: intestine (with content); for Organ distribution of F-18 signal, stomach: stomach (without content)
Procedure, shortened: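 Male NMRI mice (~30 g, 3 per time point) received ca. 150 kBq of the test compound i.v. via tail vein. At 2, 5, 30, 60 and 240 min, urine and feces were collected and organs and tissues taken for gamma counting. Values are decay-corrected % ID/g ± SD.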

T1 sequence (P05067 672-713 limits assumed): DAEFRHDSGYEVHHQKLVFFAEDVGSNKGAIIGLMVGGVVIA

O=C(NCC(=O)N1CCN(c2ccc(OCc3ccccc3)cc2)CC1)c1cccnc1[18F] [Example 12c, N-{2-[4-(4-Benzyloxy-phenyl)-piperazin-1-yl]-2-oxoethyl}-2-[F-18]-fluoro-nicotinamide]
autoradiographical analysis of binding to cryosections from cortex (Aβ plaques): Specific binding in plaque-rich regions of AD samples
Organ distribution of F-18 signal, adrenals ([1]; 2 min post i.v. injection): 6.60 % ID/g
Organ distribution of F-18 signal, adrenals ([1]; 5 min post i.v. injection): 10.38 % ID/g
Organ distribution of F-18 signal, adrenals ([1]; 30 min post i.v. injection): 2.77 % ID/g
Organ distribution of F-18 signal, adrenals ([1]; 60 min post i.v. injection): 1.55 % ID/g
Organ distribution of F-18 signal, adrenals ([1]; 240 min post i.v. injection): 0.40 % ID/g
Organ distribution of F-18 signal, blood ([1]; 2 min post i.v. injection): 1.78 % ID/g
Organ distribution of F-18 signal, blood ([1]; 5 min post i.v. injection): 1.90 % ID/g
Organ distribution of F-18 signal, blood ([1]; 30 min post i.v. injection): 1.30 % ID/g
Organ distribution of F-18 signal, blood ([1]; 60 min post i.v. injection): 0.70 % ID/g
Organ distribution of F-18 signal, blood ([1]; 240 min post i.v. injection): 0.09 % ID/g
Organ distribution of F-18 signal, brain ([1]; 2 min post i.v. injection): 5.37 % ID/g
Organ distribution of F-18 signal, brain ([1]; 5 min post i.v. injection): 4.60 % ID/g
Organ distribution of F-18 signal, brain ([1]; 30 min post i.v. injection): 1.28 % ID/g
Organ distribution of F-18 signal, brain ([1]; 60 min post i.v. injection): 0.60 % ID/g
Organ distribution of F-18 signal, brain ([1]; 240 min post i.v. injection): 0.07 % ID/g
Organ distribution of F-18 signal, fat ([1]; 2 min post i.v. injection): 1.00 % ID/g
Organ distribution of F-18 signal, fat ([1]; 5 min post i.v. injection): 1.92 % ID/g
Organ distribution of F-18 signal, fat ([1]; 30 min post i.v. injection): 1.89 % ID/g
Organ distribution of F-18 signal, fat ([1]; 60 min post i.v. injection): 1.29 % ID/g
Organ distribution of F-18 signal, fat ([1]; 240 min post i.v. injection): 0.11 % ID/g
Organ distribution of F-18 signal, femur ([1]; 2 min post i.v. injection): 1.70 % ID/g
Organ distribution of F-18 signal, femur ([1]; 5 min post i.v. injection): 1.63 % ID/g
Organ distribution of F-18 signal, femur ([1]; 30 min post i.v. injection): 5.55 % ID/g
Organ distribution of F-18 signal, femur ([1]; 60 min post i.v. injection): 7.65 % ID/g
Organ distribution of F-18 signal, femur ([1]; 240 min post i.v. injection): 7.96 % ID/g
Organ distribution of F-18 signal, heart ([1]; 2 min post i.v. injection): 4.76 % ID/g
Organ distribution of F-18 signal, heart ([1]; 5 min post i.v. injection): 4.28 % ID/g
Organ distribution of F-18 signal, heart ([1]; 30 min post i.v. injection): 1.52 % ID/g
Organ distribution of F-18 signal, heart ([1]; 60 min post i.v. injection): 0.69 % ID/g
Organ distribution of F-18 signal, heart ([1]; 240 min post i.v. injection): 0.08 % ID/g
Organ distribution of F-18 signal, intestine ([1]; 2 min post i.v. injection): 1.78 % ID/g
Organ distribution of F-18 signal, intestine ([1]; 5 min post i.v. injection): 2.44 % ID/g
Organ distribution of F-18 signal, intestine ([1]; 30 min post i.v. injection): 6.62 % ID/g
Organ distribution of F-18 signal, intestine ([1]; 60 min post i.v. injection): 8.88 % ID/g
Organ distribution of F-18 signal, intestine ([1]; 240 min post i.v. injection): 10.54 % ID/g
Organ distribution of F-18 signal, kidney ([1]; 2 min post i.v. injection): 7.70 % ID/g
Organ distribution of F-18 signal, kidney ([1]; 5 min post i.v. injection): 7.76 % ID/g
Organ distribution of F-18 signal, kidney ([1]; 30 min post i.v. injection): 7.88 % ID/g
Organ distribution of F-18 signal, kidney ([1]; 60 min post i.v. injection): 3.63 % ID/g
Organ distribution of F-18 signal, kidney ([1]; 240 min post i.v. injection): 0.58 % ID/g
Organ distribution of F-18 signal, liver ([1]; 2 min post i.v. injection): 5.84 % ID/g
Organ distribution of F-18 signal, liver ([1]; 5 min post i.v. injection): 8.93 % ID/g
Organ distribution of F-18 signal, liver ([1]; 30 min post i.v. injection): 8.20 % ID/g
Organ distribution of F-18 signal, liver ([1]; 60 min post i.v. injection): 6.01 % ID/g
Organ distribution of F-18 signal, liver ([1]; 240 min post i.v. injection): 2.40 % ID/g
Organ distribution of F-18 signal, lung ([1]; 2 min post i.v. injection): 3.52 % ID/g
Organ distribution of F-18 signal, lung ([1]; 5 min post i.v. injection): 3.73 % ID/g
Organ distribution of F-18 signal, lung ([1]; 30 min post i.v. injection): 1.78 % ID/g
Organ distribution of F-18 signal, lung ([1]; 60 min post i.v. injection): 0.79 % ID/g
Organ distribution of F-18 signal, lung ([1]; 240 min post i.v. injection): 0.15 % ID/g
Organ distribution of F-18 signal, muscle ([1]; 2 min post i.v. injection): 2.48 % ID/g
Organ distribution of F-18 signal, muscle ([1]; 5 min post i.v. injection): 17.41 % ID/g
Organ distribution of F-18 signal, muscle ([1]; 30 min post i.v. injection): 0.88 % ID/g
Organ distribution of F-18 signal, muscle ([1]; 60 min post i.v. injection): 0.47 % ID/g
Organ distribution of F-18 signal, muscle ([1]; 240 min post i.v. injection): 0.06 % ID/g
Organ distribution of F-18 signal, pancreas ([1]; 2 min post i.v. injection): 3.58 % ID/g
Organ distribution of F-18 signal, pancreas ([1]; 5 min post i.v. injection): 4.30 % ID/g
Organ distribution of F-18 signal, pancreas ([1]; 30 min post i.v. injection): 1.55 % ID/g
Organ distribution of F-18 signal, pancreas ([1]; 60 min post i.v. injection): 0.75 % ID/g
Organ distribution of F-18 signal, pancreas ([1]; 240 min post i.v. injection): 0.12 % ID/g
Organ distribution of F-18 signal, skin ([1]; 2 min post i.v. injection): 1.25 % ID/g
Organ distribution of F-18 signal, skin ([1]; 5 min post i.v. injection): 1.23 % ID/g
Organ distribution of F-18 signal, skin ([1]; 30 min post i.v. injection): 1.51 % ID/g
Organ distribution of F-18 signal, skin ([1]; 60 min post i.v. injection): 0.66 % ID/g
Organ distribution of F-18 signal, skin ([1]; 240 min post i.v. injection): 0.08 % ID/g
Organ distribution of F-18 signal, spleen ([1]; 2 min post i.v. injection): 1.32 % ID/g
Organ distribution of F-18 signal, spleen ([1]; 5 min post i.v. injection): 2.08 % ID/g
Organ distribution of F-18 signal, spleen ([1]; 30 min post i.v. injection): 0.87 % ID/g
Organ distribution of F-18 signal, spleen ([1]; 60 min post i.v. injection): 0.42 % ID/g
Organ distribution of F-18 signal, spleen ([1]; 240 min post i.v. injection): 0.06 % ID/g
Organ distribution of F-18 signal, stomach ([1]; 2 min post i.v. injection): 3.14 % ID/g
Organ distribution of F-18 signal, stomach ([1]; 5 min post i.v. injection): 3.52 % ID/g
Organ distribution of F-18 signal, stomach ([1]; 30 min post i.v. injection): 1.91 % ID/g
Organ distribution of F-18 signal, stomach ([1]; 60 min post i.v. injection): 1.89 % ID/g
Organ distribution of F-18 signal, stomach ([1]; 240 min post i.v. injection): 0.71 % ID/g
Organ distribution of F-18 signal, tail ([1]; 2 min post i.v. injection): 12.72 % ID/g
Organ distribution of F-18 signal, tail ([1]; 5 min post i.v. injection): 6.80 % ID/g
Organ distribution of F-18 signal, tail ([1]; 30 min post i.v. injection): 2.72 % ID/g
Organ distribution of F-18 signal, tail ([1]; 60 min post i.v. injection): 3.08 % ID/g
Organ distribution of F-18 signal, tail ([1]; 240 min post i.v. injection): 1.30 % ID/g
Organ distribution of F-18 signal, testicle ([1]; 2 min post i.v. injection): 1.21 % ID/g
Organ distribution of F-18 signal, testicle ([1]; 5 min post i.v. injection): 1.79 % ID/g
Organ distribution of F-18 signal, testicle ([1]; 30 min post i.v. injection): 1.09 % ID/g
Organ distribution of F-18 signal, testicle ([1]; 60 min post i.v. injection): 0.58 % ID/g
Organ distribution of F-18 signal, testicle ([1]; 240 min post i.v. injection): 0.08 % ID/g
Organ distribution of F-18 signal, thyroid ([1]; 2 min post i.v. injection): 3.59 % ID/g
Organ distribution of F-18 signal, thyroid ([1]; 5 min post i.v. injection): 3.10 % ID/g
Organ distribution of F-18 signal, thyroid ([1]; 30 min post i.v. injection): 1.92 % ID/g
Organ distribution of F-18 signal, thyroid ([1]; 60 min post i.v. injection): 1.27 % ID/g
Organ distribution of F-18 signal, thyroid ([1]; 240 min post i.v. injection): 0.41 % ID/g
